The subject of assay [1] is Hartley guinea pigs. Kind of assay: Subchondral bone mineral density by X-ray densitometry. Format: in vivo. How it is done:
The bone mineral density of subchondral bone of these same Hartley guinea pigs was evaluated using a X-ray densitometry.

Assay [2] concerns meniscus derived from osteoarthritis patients. The assay is described as follows: Microarray gene expression in cultured minced meniscus. Format: cell-based, human. The settings on record: 7 day treatment, Skeletal Development gene. An excerpt: In this example, meniscus derived from osteoarthritis patients were minced into small pieces and cultured in the absence or presence of magnesium phosphcitrate (MgPC). After 7 day treatment, RNA was extracted and gene expression was investigated using microarray.

Assay [3] has as its system Hartley guinea pigs. Kind of assay: High definition X-ray of front limbs of Hartley guinea pigs after eight months of CaPC. The conditions noted are these: 30 mg/kg intraperitoneal twice per week. The format is in vivo. Here is the method: In this example, three month old Hartley guinea pigs were administered 30 mg/kg calcium phosphorcitrate (CaPC) or saline via intraperitoneal injection twice per week. Eight months later, the guinea pigs were sacrificed and examined with high definition X-ray. […] The bone mineral content of the front limb of a CaPC-treated Hartley guinea pig (left photo, the green arrow) was higher than the bone mineral content of a front limb of an untreated Hartley guinea pig (left photo, the green arrow). […] The diameter of the front limb was lager and the bone mineral content was higher in CaPC-treated Hartley guinea pigs that that in untreated Hartley guinea pigs.

The subject of assay [4] is Hartley guinea pigs. The assay is described as follows: Skyscan Micro-CT of distal femurs of Hartley guinea pigs. Format: in vivo. Here is the method:
The distal femurs of the Hartley guinea pigs were also analyzed with Skyscan Micro-CT. The femur of untreated Hartley guinea pigs had less bone volume and larger marrow space than the femur of CaPC-treated Hartley guinea pigs. Micro-CT scan of the femur of Hartley guinea pigs. […] The area showing less trabecular bone and larger marrow space is indicated by a red arrow. In the right image of FIG. 3, the femur of a CaPC-treated Hartley guinea pig is shown.
Femurs, previously stored in 70% ethanol, were cut close to the distal femur condyle. The specimens were left to dry 48-hr before being scanned using Skyscan Micro-CT. A 3-D model was built in the ANT model building program and bisected with a plane down the lateral/midline. Using the model building program, a separate dataset was built forming 30 cross sections on either side of the plane. With this dataset, measurements were taken with the 3D-Calc program. A rectangular region of interest was applied to all 60 sections. The region of interest was placed approximately 0.5 cm down from the growth plate in the central part of the trabeculae and extended downward.

calcium phosphorcitrate [CaPC]: the “Subchondral bone mineral density” value with Hartley guinea pigs [1] (Pair one, untreated 0.143) was 0.157 g/cm^2. Moreover, the “Subchondral bone mineral density” value in the assay on Hartley guinea pigs [1] (Pair three, untreated 0.150) was determined as 0.181 g/cm^2. In addition, the “Subchondral bone mineral density” value in the assay with Hartley guinea pigs [1] (Pair two, untreated 0.146) is on record as 0.161 g/cm^2. In addition, in assay [2], the “Differential Expression ACAN” value is recorded as “significantly induced”, the “Differential Expression COL2A1” value is given as “significantly induced” and the “Differential Expression COL11A1” value is recorded as “significantly induced”. In addition, in the assay on Hartley guinea pigs [3] (vs saline), the formation of bone entry was “promoted the formation of bone”. In the assay with Hartley guinea pigs [3] (vs untreated), the “bone mineral content of the front limb” value is recorded as “higher” and the “diameter of the front limb” value is reported as “larger”. For the same substance, the “trabecular bone and marrow space of femur (Micro-CT image)” value in the assay with Hartley guinea pigs [4] (30 mg/kg intraperitoneal twice per week, eight months, vs untreated) was “more trabecular bone and less marrow space”. Besides, the “Bone Volume” value with Hartley guinea pigs [4] (distal femur, region of interest over 60 sections, untreated 0.19 + 0.04) was 0.49 + 0.09. Moreover, in the assay on Hartley guinea pigs [4] (distal femur, region of interest over 60 sections, untreated 0.43 + 0.08), the “Trabecular Number” value is 1.07 + 0.15. In addition, the “Tissue Volume” value in the assay on Hartley guinea pigs [4] (distal femur, region of interest over 60 sections, untreated 10.76 + 1.9) was 10.76 + 1.9. The “Trabecular Thickness” value with Hartley guinea pigs [4] (distal femur, region of interest over 60 sections, untreated 32.90 + 3.6) was 42.00 + 4.9.

As to magnesium phosphcitrate [MgPC], in assay [2], the “Differential Expression ACAN” value amounted to 2.0, the “Differential Expression COL2A1” value worked out at 2.0 and the “Differential Expression COL11A1” value stood at 2.7.

The record behind these values is patent US20170232013A1, “COMPOSITIONS AND METHODS FOR THE TREATMENT OF MUSCULOSKELETAL RELATED DISEASES AND DISORDERS USING METAL ION-CITRATE ANALOG COMPLEXES” (The Charlotte-Mecklenburg Hospital Authority d/b/a …, priority 2011, published 2017).
